From ChEMBL document CHEMBL6103606, “AMP-Activated Protein Kinase Activators as Therapeutic Targets To Treat Heart Failure and Diseases That Can Benefit from Improved Muscular Performance” (ACS Med Chem Lett, 2025)

How the values were obtained:
[1] = molecular target: AMPK alpha2/beta2/gamma3 (Homo sapiens) (UniProt P54646+O43741+Q9UGI9); experiment: Activation of human AMPK alpha2/beta2/gamma3 transiently transfected in HEK293 cells assessed as phosphorylation at […]Thr172 by measuring asymptotic max incubated for 20 mins by AlphaLISA assay relative to control; assay type: cell-based
AMPK alpha2/beta2/gamma3 = AMPK alpha2/beta2/gamma3 (Homo sapiens, UniProt O43741+P54646+Q9UGI9); experiment: Activation of human AMPK (alpha2/beta2/gamma3) transiently transfected in HEK293 cells assessed as phosphorylation at […]Thr172 incubated for 20 mins by AlphaLISA assay; assay type: cell-based
Chain of AMPK alpha2/beta2/gamma3 (P54646 whole entry): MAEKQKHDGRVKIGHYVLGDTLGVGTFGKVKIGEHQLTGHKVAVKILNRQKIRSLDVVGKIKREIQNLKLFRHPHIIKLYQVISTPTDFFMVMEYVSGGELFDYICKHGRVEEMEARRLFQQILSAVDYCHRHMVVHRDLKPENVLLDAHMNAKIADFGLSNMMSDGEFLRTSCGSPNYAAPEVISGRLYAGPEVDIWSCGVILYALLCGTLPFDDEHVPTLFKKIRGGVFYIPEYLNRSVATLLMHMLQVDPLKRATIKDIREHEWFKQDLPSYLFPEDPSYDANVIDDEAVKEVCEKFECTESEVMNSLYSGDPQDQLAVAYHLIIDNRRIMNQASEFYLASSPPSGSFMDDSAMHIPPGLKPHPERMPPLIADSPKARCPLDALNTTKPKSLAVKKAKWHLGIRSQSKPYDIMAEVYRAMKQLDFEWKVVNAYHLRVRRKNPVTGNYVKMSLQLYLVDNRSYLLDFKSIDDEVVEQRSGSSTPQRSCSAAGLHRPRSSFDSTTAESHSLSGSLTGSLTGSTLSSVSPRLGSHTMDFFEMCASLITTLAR
Chain of AMPK alpha2/beta2/gamma3 (O43741 whole entry): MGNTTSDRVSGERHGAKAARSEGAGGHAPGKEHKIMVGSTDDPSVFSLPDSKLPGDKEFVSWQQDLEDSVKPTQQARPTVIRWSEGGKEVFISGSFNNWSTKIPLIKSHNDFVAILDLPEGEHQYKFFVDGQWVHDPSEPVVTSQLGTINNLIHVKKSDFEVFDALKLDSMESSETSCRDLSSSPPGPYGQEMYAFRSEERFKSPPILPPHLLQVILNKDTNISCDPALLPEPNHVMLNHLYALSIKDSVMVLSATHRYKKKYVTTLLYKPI
Chain of AMPK alpha2/beta2/gamma3 (Q9UGI9 whole entry): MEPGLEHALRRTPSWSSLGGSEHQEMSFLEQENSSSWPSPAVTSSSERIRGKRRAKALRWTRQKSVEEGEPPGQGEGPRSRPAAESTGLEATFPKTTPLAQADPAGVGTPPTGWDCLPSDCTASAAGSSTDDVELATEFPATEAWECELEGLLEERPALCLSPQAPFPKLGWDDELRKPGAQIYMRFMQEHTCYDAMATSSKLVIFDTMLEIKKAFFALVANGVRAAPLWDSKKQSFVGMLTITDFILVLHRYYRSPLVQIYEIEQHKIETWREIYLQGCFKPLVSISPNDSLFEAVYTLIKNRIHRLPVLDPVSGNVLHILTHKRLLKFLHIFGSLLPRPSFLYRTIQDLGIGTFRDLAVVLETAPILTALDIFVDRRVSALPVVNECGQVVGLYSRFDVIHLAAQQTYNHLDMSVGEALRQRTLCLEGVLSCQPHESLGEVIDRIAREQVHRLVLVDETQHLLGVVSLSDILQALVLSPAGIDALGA

Chain of AMPK alpha2/beta2/gamma3 (Homo sapiens) (O43741 whole entry, looked up): as the sequence (O43741 whole entry) above
Chain of AMPK alpha2/beta2/gamma3 (Homo sapiens) (P54646 whole entry, looked up): as the sequence (P54646 whole entry) above
Chain of AMPK alpha2/beta2/gamma3 (Homo sapiens) (Q9UGI9 whole entry, looked up): as the sequence (Q9UGI9 whole entry) above

Structure (SMILES)	max activation ([1]; filed as activator) [%]	EC50 (AMPK alpha2/beta2/gamma3) [nM]	max activation [1] [%]
Cn1cc(F)c(N2C[C@](C)(c3cccc(Cl)c3F)c3c(cnc(NC4CN(C(=O)[C@@](C)(O)C5CC5)C4)c3F)C2=O)n1	89.6	21.3	
Cn1cc(F)c(N2C[C@](C)(c3cccc(Cl)c3F)c3c(cnc(NC4CN(C(=O)C(O)CC(F)(F)F)C4)c3F)C2=O)n1 (some centres not stated)	100		
CC1(c2ccc(F)c(Cl)c2F)CN(c2ccc(CO)cn2)C(=O)c2cnc(NC3CN(C(=O)N4C[C@@H]5C[C@H]4CO5)C3)c(F)c21 (some centres not stated)	113		
CNCc1ccc(N2C[C@](C)(c3cccc(Cl)c3F)c3nc(NC4CN(C(=O)[C@@H]5C[C@@H]5F)C4)ncc3C2=O)cc1F	154	2500	
Cn1cc(F)c(N2C[C@](C)(c3cccc(Cl)c3F)c3c(cnc(NC4CN(C(=O)[C@@H]5C[C@@H]5F)C4)c3F)C2=O)n1	81.7		
Cn1cc(F)c(N2CC(C)(c3cccc(Cl)c3F)c3c(cnc(NC4CN([C@H]5CCCNC5=O)C4)c3F)C2=O)n1 (some centres not stated)	119	27.2	
Cn1cc(F)c(N2C[C@](C)(c3cccc(Cl)c3F)c3c(cnc(NC4CN(C(=O)C5CCC(F)(F)CN5)C4)c3F)C2=O)n1 (some centres not stated)	85.5		
C[C@]1(c2cccc(Cl)c2F)CN(c2ccc([C@@H]3COCCN3)cn2)C(=O)c2cnc(NC3CN(C(=O)c4cccnn4)C3)c(F)c21	120		
C[C@]1(c2cccc(Cl)c2F)CN(c2cc(OC(F)F)ccn2)C(=O)c2cnc(NC3CN(C(=O)[C@@H]4C[C@@H]4F)C3)c(F)c21			30.9
CN1CCCC(N2CC(Nc3ncc4c(c3F)[C@@](C)(c3cccc(Cl)c3F)CN(c3nn(C)cc3F)C4=O)C2)C1=O (some centres not stated)	139		
Cn1cc(F)c(N2CC(C)(c3cccc(Cl)c3F)c3c(cnc(N[C@@H]4CCN(C(=O)N5C[C@@H]6C[C@H]5CO6)C4)c3F)C2=O)n1 (some centres not stated)	52.2		
CC1(c2cccc(Cl)c2F)CN(c2ncccc2F)C(=O)c2cnc(NC3CN(C(=O)N4CCC[C@@H]4CO)C3)nc21 (some centres not stated)	106		
C[C@]1(c2cccc(Cl)c2F)CN(c2ncccc2F)C(=O)c2cnc(NC3CN(C(=O)C4(O)CC4)C3)c(F)c21	112		
Cn1cc(F)c(N2C[C@](C)(c3cccc(Cl)c3F)c3c(cnc(NC4CN(C(=O)CC(F)(F)F)C4)c3F)C2=O)n1	90		
